Source: US11213583B2, “Methods and compositions for treating cancer and infectious diseases” (Cedars-Sinai Medical Center, priority 2014, dated 2022)

Key:
RENCA tumors = experiment: RENCA tumor treatment model in Balb/c mice; format: in vivo; conditions: αCD4 days 6 and 10; temsirolimus daily days 14 to 34; no cancer vaccine
Description: (§1) (a) RENCA-CA9 tumor cells were implanted into Balb/C mice (n=5 per group) on day 0. CD4 lymphocytes were depleted with αCD4 antibody on days 6 and 10. Mice were treated with daily temsirolimus on days 14 to 34. Tumor growth was monitored. Results are representative of triplicate experiments. (b) In the same experiment, lymphocytes were harvested on day 45, restimulated with CA9 peptide, and stained for CD8 and IFNγ. (c) Following CD4 depletion, spleen, lymph node and blood were collected on days 0, 1, 10. Lymphocytes were stained for CD4, CD8 and FoxP3 and analyzed by flow cytometry. (c-e) The percentages of CD4 cells in the spleen, lymph node and blood on days 0, 1, and 10 following CD4 depletion are reported. (d) Following CD4 depletion, percentages of splenocytes that are CD4 or CD8 positive are reported, and percent of CD4 cells that are FoxP3 positive is reported. (e) In the same experiment, the absolute numbers of splenocytes positive for CD4, CD8, and CD4/FoxP3 are reported. *p<0.05, **p<0.01,***p<0.005.
Furthermore, the presence of tumor itself increased Tregs (FIG. 8). Therefore, we hypothesized that the antitumor immunity induced by mTOR inhibition can be further enhanced by targeting Tregs. Currently there is no clinical strategy to selectively remove Tregs; however, it is feasible to deplete all CD4 lymphocytes. However, CD4 effector cells are required for immune activation. […]

CD8 lymphocytes (IFN-γ) = experiment: Tumor-specific IFN-γ response of lymphocytes harvested on day 45, RENCA model; format: in vivo, mice; conditions: lymphocytes harvested day 45, restimulated with CA9 peptide
Description: as §1
In the same experiment, lymphocytes were harvested on day 45 and assessed for tumor-specific IFN-γ response (FIG. 2b). In tumor-bearing mice that received no treatment, there was no IFN-γ response. […] To characterize the CD4 lymphocyte depletion in response to αCD4, naïve mice were treated with a single dose of αCD4.

RENCA tumor cells = conditions: Wang et al. Br J Cancer 2011; cited from earlier work
Pmel-1 lymphocytes = experiment: Flow cytometry of adoptively transferred Thy1.1 Pmel-1 lymphocytes after DC vaccine and temsirolimus; conditions: with DC vaccine
[1] = system: CD4+FoxP3+ lymphocytes / CTL function; experiment: Treg depletion with diphtheria toxin in DEREG mice, in vivo CTL assay

CO[C@H]1C[C@@H]2CC[C@@H](C)[C@@](O)(O2)C(=O)C(=O)N2CCCC[C@H]2C(=O)O[C@H]([C@H](C)C[C@@H]2CC[C@@H](OC(=O)C(C)(CO)CO)[C@H](OC)C2)CC(=O)[C@H](C)/C=C(\C)[C@@H](O)[C@@H](OC)C(=O)[C@H](C)C[C@H](C)/C=C/C=C/C=C/1C [temsirolimus]
RENCA tumor growth (RENCA tumors): effective in decreasing tumor growth | tumor-specific IFN-γ response (CD8 lymphocytes (IFN-γ)): some IFN-γ response | growth of RENCA tumor cells in vitro (RENCA tumor cells): directly inhibit the growth of RENCA tumor cells in vitro | Eomes expression in Pmel-1 lymphocytes (Pmel-1 lymphocytes): increased expression of Eomes | Tbet expression in Pmel-1 lymphocytes (Pmel-1 lymphocytes): decrease in Tbet expression | Tregs (Pmel-1 lymphocytes): increase in Tregs

diphtheria toxin [DT]
CD4+FoxP3+ lymphocytes [1]: removed nearly all CD4+FoxP3+ lymphocytes
